Legend:
Assay in all cases: relative viability (nuclei count vs DMSO), 5 days (fraction); higher = more cells survive
[1] = compound: CC[C@H](Nc1ncnc2[nH]cnc12)c1nc2cccc(F)c2c(=O)n1-c1ccccc1 [Idelalisib] + NC(=O)Nc1cc(-c2cccc(F)c2)sc1C(=O)N[C@H]1CCCNC1 [AZD7762] (partner 0.2 µM)
How it was run: (§1)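 Each reported value is a median over duplicate plates. It expresses relative viability: treated-well nuclei count divided by vehicle-well nuclei count. Lung cancer cell lines in 1536-well plates were dosed by pin tool a day after seeding, alone with one drug or with a fixed anchor-drug dose plus five library-drug doses (not always all listed) in √10 steps, and nuclei were counted after 5 days.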

[2] = compound: Nc1nc2[nH]cc(CCc3ccc(C(=O)N[C@@H](CCC(=O)O)C(=O)O)cc3)c2c(=O)[nH]1 [Pemetrexed] + COc1cc2c(Oc3ccc(NC(=O)C4(C(=O)Nc5ccc(F)cc5)CC4)cc3F)ccnc2cc1OCCCN1CCOCC1 [Foretinib] (partner 0.25 µM)
How it was run: as §1

[3] = compound: Nc1nc2[nH]cc(CCc3ccc(C(=O)N[C@@H](CCC(=O)O)C(=O)O)cc3)c2c(=O)[nH]1 [Pemetrexed] + Cc1nc(Nc2ncc(C(=O)Nc3c(C)cccc3Cl)s2)cc(N2CCN(CCO)CC2)n1 [Dasatinib] (partner 0.075 µM)
How it was run: as §1

[4] = compound: CC[C@H](Nc1ncnc2[nH]cnc12)c1nc2cccc(F)c2c(=O)n1-c1ccccc1 [Idelalisib] + CCNC(=O)c1noc(-c2cc(C(C)C)c(O)cc2O)c1-c1ccc(CN2CCOCC2)cc1 [Luminespib] (partner 0.01 µM)
How it was run: as §1

Cell Line	relative viability ([1]; first compound 0.04 µM)	relative viability ([1]; first compound 0.1265 µM)	relative viability ([1]; first compound 0.4 µM)	relative viability ([1]; first compound 1.265 µM)	relative viability ([1]; first compound 4 µM)	relative viability ([2]; first compound 0.002 µM)	relative viability ([2]; first compound 0.006325 µM)	relative viability ([2]; first compound 0.02 µM)	relative viability ([2]; first compound 0.06325 µM)	relative viability ([2]; first compound 0.2 µM)	relative viability ([3]; first compound 0.002 µM)	relative viability ([3]; first compound 0.006325 µM)	relative viability ([3]; first compound 0.02 µM)	relative viability ([3]; first compound 0.06325 µM)	relative viability ([3]; first compound 0.2 µM)	relative viability ([4]; first compound 0.04 µM)	relative viability ([4]; first compound 0.1265 µM)	relative viability ([4]; first compound 0.4 µM)	relative viability ([4]; first compound 1.265 µM)	relative viability ([4]; first compound 4 µM)
HCC-366	0.248	0.317	0.242	0.106	0.249	0.799	0.888	0.963	0.863	0.901	0.574	0.613	0.683	0.71	0.527					
HCC-827	0.216	0.212	0.31	0.153	0.199	0.903	1.03	1.03	1.01	0.916	0.369	0.287	0.349	0.362	0.339	1.18	0.545	0.478	0.249	0.374
HOP-62	0.731	0.706	0.398	0.304	0.545	0.892	1.02	1.2	1.09	1.07	0.522	0.636	0.659	0.674	0.629	1.03	0.875	0.83	1.08	0.926
IA-LM						1.05	1.1	1.05	1.14	0.829										
LC-2-ad	0.826	0.86	0.734	0.782	0.632	0.818	0.946	0.526	0.296	0.284	0.454	0.525	0.347	0.208	0.222	1.17	1.06	0.886	1.14	0.957
LCLC-97TM1	0.199	0.382	0.274	0.107	0.339	1.01	0.81	0.886	0.872	0.886	0.743	0.892	0.967	0.797	0.588	0.82	0.738	0.708	0.818	0.607
NCI-H520						0.787	0.749	0.848	0.693	0.738	0.235	0.224	0.208	0.203	0.235	0.197	0.251	0.222	0.217	0.192
NCI-H522	0.857	0.909	0.849	0.745	0.851						0.881	0.822	0.967	0.848	0.933	1.13		1.21	1.12	1.23
NCI-H661						1.03	0.987	1.01	0.985	0.974	0.882	0.84	0.958	0.945	0.827	0.985	0.907	0.85	0.987	1.04
NCI-H1299						1.08	1.15	1.12	1.09	0.595										
NCI-H1563						0.822	0.87	1.01	0.909	0.919	0.24	0.453	0.486	0.426	0.492	0.562	0.543	0.557	0.519	0.5
NCI-H1623						0.794	0.831	0.861	0.848	0.769	0.511	0.539	0.458	0.517	0.509	0.461	0.494	0.394	0.381	0.516
NCI-H1648	0.652	0.638	0.866	0.6	0.504															
NCI-H1650						0.985	0.988	1.17	0.888	0.402	0.42	0.32	0.326	0.235	0.23	0.18	0.191	0.198	0.219	0.185
NCI-H1703		0.124		0.0966	0.126	0.304	0.283	0.415	0.345	0.369										
NCI-H1792	0.737	0.803	0.452	0.493	0.388						0.782	0.789	0.938	0.747	0.81	0.408	0.434		0.679	0.33
NCI-H2009						1.2	1.28	1.29	1.2	1.11	0.299	0.289	0.377	0.265	0.307	1.01	1.04	1.02	1.11	1.03
NCI-H2023							0.739	0.885	0.888	0.319	0.506	0.505	0.6	0.433	0.195	0.644	0.784	0.79	0.87	0.67
NCI-H2228						0.71		0.993	0.633	0.302	0.444		0.472	0.337	0.2	0.0989	0.17	0.16	0.175	0.133
SK-LU-1						0.71	0.888	0.923	0.783	0.801	0.184	0.205	0.185	0.198	0.162	0.225	0.189	0.185	0.188	0.205
SK-MES-1						0.883	0.83	1.04	0.907	0.868	0.411	0.367	0.516	0.328	0.339	0.847	0.689	0.591	0.546	0.542
SW 1573						0.909	0.808	0.951	0.979	0.855	0.524	0.448	0.735	0.593	0.42	0.275	0.171	0.219	0.17	0.365
